In ChEMBL document CHEMBL1155602, “Three new scalarane sesterterpenoids from the Okinawan sponge Hyrtios erectus” (J Nat Prod, 2000) one finds IC50 data, which are given here for one molecule.

Converted amounts (≈) assume the structure as drawn.

For this test, the system named is KB. As to the kind of experiment: Antiproliferative activity against human KB cells. Format: functional, cell-based.

By IC50 is commonly meant the concentration that gives 50% inhibition. Turning to `CC1(C)CCC[C@]2(C)[C@H]3C[C@@H](O)[C@]4(C)C=C(C=O)CC[C@H]4[C@]3(C)CC[C@@H]12`, the midpoint of inhibition, the IC50, lay at 2.82 µg/mL (≈ 7.86 µM).
